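48-hour exposure; five concentrations; linearly interpolated endpoints. At the TGI there is no net growth.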
What was measured:
Assay in all cases: NCI anticancer screen, dose series, 48 h
DU-145 prostate = tested on: DU-145 prostate
EKVX NSCLC = tested on: EKVX NSCLC
HCT-116 colon = tested on: HCT-116 colon
HCT-15 colon = tested on: HCT-15 colon
HOP-62 NSCLC = tested on: HOP-62 NSCLC
IGROV1 ovarian = tested on: IGROV1 ovarian
KM12 colon = tested on: KM12 colon
LOX IMVI melanoma = tested on: LOX IMVI melanoma
MALME-3M melanoma = tested on: MALME-3M melanoma
MDA-MB-435 = tested on: MDA-MB-435
NCI-H460 lung = tested on: NCI-H460 lung
NCI/ADR-RES ovarian = tested on: NCI/ADR-RES ovarian
OVCAR-4 ovarian = tested on: OVCAR-4 ovarian
OVCAR-8 ovarian = tested on: OVCAR-8 ovarian
PC-3 prostate = tested on: PC-3 prostate
RXF 393 renal = tested on: RXF 393 renal
SF-295 CNS = tested on: SF-295 CNS
SK-MEL-28 melanoma = tested on: SK-MEL-28 melanoma
SK-MEL-5 melanoma = tested on: SK-MEL-5 melanoma
SW-620 colon = tested on: SW-620 colon

Row | Compound | TGI (DU-145 prostate) [µM] | TGI (EKVX NSCLC) [µM] | TGI (HCT-116 colon) [µM] | TGI (HCT-15 colon) [µM] | TGI (HOP-62 NSCLC) [µM] | TGI (IGROV1 ovarian) [µM] | TGI (KM12 colon) [µM] | TGI (LOX IMVI melanoma) [µM] | TGI (MALME-3M melanoma) [µM] | TGI (MDA-MB-435) [µM] | TGI (NCI-H460 lung) [µM] | TGI (NCI/ADR-RES ovarian) [µM] | TGI (OVCAR-4 ovarian) [µM] | TGI (OVCAR-8 ovarian) [µM] | TGI (PC-3 prostate) [µM] | TGI (RXF 393 renal) [µM] | TGI (SF-295 CNS) [µM] | TGI (SK-MEL-28 melanoma) [µM] | TGI (SK-MEL-5 melanoma) [µM] | TGI (SW-620 colon) [µM]
1 | CC(=O)Oc1c2c(c(CC=C(C)C)c3c1C(=O)C1=C[C@@H]4CC5C(C)(C)OC(C/C=C(/C)C(=O)O)(C4=O)[C@@]15O3)OC(C)(CCC=C(C)C)C=C2 (stereo not given in full) | 0.838 | 0.839 | 0.316 | 0.978 | 1.88 | 0.294 | 0.897 | 0.247 | 0.558 | 0.348 | 1.97 | 2.7 | 0.567 | 0.747 | 1.24 | 0.336 | 1.67 | 0.378 | 0.737 | 0.241
2 | CC(C)COC(=O)OC(=O)c1ccc(N(C)Cc2cnc3nc(N)nc(N)c3n2)cc1 | > 100 | > 100 | > 100 | > 100 | > 100 | > 100 | > 100 | > 100 | > 100 | > 100 | > 100 | > 100 | > 100 | > 100 | > 100 | > 100 | > 100 | > 100 | > 93.9 | > 100
3 | CCOC(=O)NC(C(=O)OCC)(N1CCN(c2cc3c(cc2F)c(=O)c(C(=O)O)cn3CC)CC1)C(F)(F)F (stereo not given) | > 100 | 56.9 | > 100 | > 100 | > 100 | > 100 | > 100 | > 100 | > 100 | > 100 | > 100 | > 100 | > 100 | 34 | > 100 | > 100 | > 100 | 0.533 | > 100 | > 100
4 | O=C(O)CC1NC(/C(=C/c2ccccc2O)NC(=O)c2ccccc2)OC1=O (stereo not given) | > 100 | > 100 | > 100 | > 100 | 29.5 | > 70.9 | > 100 | > 100 | > 100 | > 100 | > 100 | > 100 | > 38.2 | > 87.8 | > 100 | 99.2 | > 95.7 | > 100 | > 100 | > 100
5 | NC(=O)C(=CNC(=S)Nc1ccc(Cl)c(Cl)c1)C(N)=O | > 100 | > 100 | > 100 | > 100 | > 100 | > 100 | > 100 | > 100 | > 100 | > 100 | > 100 | > 100 | > 100 | > 100 | > 100 | > 95.7 | > 100 | > 100 | > 100 | > 100
6 | O=C(NNCC(F)(F)F)c1ccncc1 | > 100 | > 100 | > 100 | > 100 | > 100 | > 100 | > 100 | > 100 | > 100 | > 100 | > 100 | > 100 | > 100 | > 100 | > 100 | > 100 | > 100 | > 100 | > 100 | > 100
7 | COC(=O)C(C(=O)C(=O)Nc1ccccc1C#N)c1nc2ccc([N+](=O)[O-])cc2[nH]c1=O (stereo not given) | > 100 | > 100 | > 100 | > 100 | > 100 | > 100 | > 100 | > 100 | > 100 | > 100 | > 100 | > 100 | > 100 | > 100 | > 100 | > 100 | > 100 | > 100 | > 100 | > 100
8 | Nn1c(CCCCCCCCc2nnc(COc3ccccc3)n2N)nnc1COc1ccccc1 | > 100 | > 100 | > 100 | > 100 | > 100 | > 100 | > 100 | > 100 | > 100 | > 100 | > 100 | > 100 | > 100 | > 100 | > 100 | > 100 | > 100 | > 100 | > 100 | > 100
9 | COc1cc(/C=C/c2nc(N)nnc2C)cc(OC)c1OC | > 100 | > 72.9 | > 53.9 | 38.9 | 29 | 37.3 | > 50.5 | > 35.9 | 32.8 | > 94.7 | > 58.5 | > 90.2 | > 73.7 | > 100 | > 53 | > 64.4 | > 72.6 | > 100 | 52.2 | > 100
10 | CN(C)CC1CCC/C(=C\c2ccc(OC(=O)/C=C/c3ccccc3)cc2)C1=O (stereo not given) | 7.11 | 4.89 | 2.8 | 3.14 | 10.6 | 14 | 3.44 | 1.7 | 5.02 | 7.37 | 21.9 | 5.12 | 9.44 | 3.9 | 19.5 | 3.71 | 13.7 | 7.49 | 12.9 | 4.94
11 | CC(C)(C)OC(=O)NCCC(=O)NC1(c2cc3ccccc3s2)CCCCC1 | 33.6 | 50.6 | 27 | 30.6 | 35.3 | 36.5 | 33.5 | 36.5 | 37.5 | 33.1 | 34.3 | 41.6 | 29.1 | 35.8 | 37 | 26.2 | 36.5 | 35 | 25.9 | 41.1

From PubChem BioAssay (NCI)
